The text below walks through data of patent US20250171419A1, “NOVEL NICOTINAMIDE PHOSPHORIBOSYLTRANSFERASE INHIBITORS AND USES THEREOF” (Heidelberg Pharma Research GmbH, priority 2023, published 2025).

A short description of series [1]: Acid hydration stability (TFA, 37° C). It is filed as physicochemical. As to conditions: for tendency of cyanoguanidine group to hydration and degradation: pH values below 2, formation of guanylurea intermediates. An excerpt: Since the lysosomal pH is acidic and contains numerous hydrolases, NAMPT inhibitors bearing cyanoguanidines may therefore be degraded in the lysosome. […] The product was confirmed by mass spectrometry and NMR analysis. The inhibitor C42a was designed as an alternative to cyanoguanidine compounds containing urea as non-hydratable group.

The format of series [2] is in vitro ADME, human. On the procedure: The test compound was incubated at a concentration of 17.7 μM in a mixture of human liver lysosomal extract (tebu-bio, Seikisui Xenotech, Ref: H0610.L) and 1× catabolism buffer (tebu-bio, Seikisui Xenotech, Ref: K5200) for […] at 37° C. Samples were taken at 0, 2, 4, 24, 48, 72, 120, and 168 hours. Control samples without lysosomal extract were also set up under the same conditions as the test sample. All measurements and samples were taken in duplicate.
To measure the reaction, the compound was quenched by adding 380 μL of internal standard buffer (30 ng/mL of internal standard in ACN) to 20 μL of the sample. An amanitin-stable isotope-labelled analogue was used as the internal standard.
22 μL of the quenched sample was analysed using UPLC-MS-MS QTrap 5500 (Column: Waters ACQUITY UPLC BEH Amide, […], 2.1×100 mm, product code: 186004801). This assay was related to compound 113. Compound 113 was expected to be the main degradation compound after lysosomal enzymatic digestion and was used as a reference for the detection of catabolites after digestion in the HPLC-MS analysis.
The ion fragments detection method was multiple reaction monitoring (MRM). In this method, the mass is measured by a tandem mass spectrometer where the initial molecular ion is selected as initial mass. […]

The test system of series [3] is murine renal cell carcinoma model RENCA. As to conditions: cited from earlier work.
Series [4] deals with human breast and lung cancer cell line-derived in vivo models. The settings on record: cited from earlier work.
In the next series the test system is solid tumors. As to conditions: cited from earlier work.
Another series has as its system L540 CD30+ cell line. The series is described as follows: Cytotoxicity in L540 CD30+ cell line, CellTiter-Glo 2.0 readout after 96 h. It counts as cell-based. The settings on record: FIG. 10 C.

Structures can show the parent of a compound that is named as a salt.

Experimental for L540 CD30+ cell line: L540 CD30^+ cell lines were used for the study. 2×10^3 Cells were added to each well of a 96-well plate, but for the blank wells. Test compounds and controls were added to their corresponding lanes in a 7-step 1:5 dilution series starting with the concentration of 1×10^−5 M for non-conjugated inhibitors and 1×10^−7 M for ADCs and free monoclonal antibody. The dilution scheme was prepared in triplicates for each sample. Cells were incubated at 37° C. at 5% CO2 for 96 h in an evaporation chamber. Readout was performed using CellTiter-Glo 2.0 assay, according to the kit instructions (Promega; Cat #G9242).
2×10^3 Cells were added to each well of a 96-well plate, but for the blank wells. […] Cells were incubated at 37° C. at 5% CO2 for 96 h in an evaporation chamber. Readout was performed using CellTiter-Glo 2.0 assay, according to the kit instructions (Promega; Cat #G9242).
2×10^3 Cells were added to each well of a 96-well plate, but for the blank wells. […] Cells were incubated at 37° C. at 5% CO2 for 96 h in an evaporation chamber. Readout was performed using CellTiter-Glo® 2.0 assay, according to kit instructions (Promega; Cat #G9242).

As for `N#C/N=C(\NCCCCC1CCN(C(=O)c2cccc(N)c2)CC1)Nc1cccnc1` [compound 36, (E)-1-(4-(1-(3-aminobenzoyl)piperidin-4-yl)butyl)-2-cyano-3-(pyridin-3-yl)guanidine], the “hydration of the cyanoguanidine moiety under acid pH” value in series [1] (acid pH) is on record as “undergoes hydration of the cyanoguanidine moiety to guanylurea”. Also, the “acid hydration reaction involving TFA, pH above 2” value in series [1] (pH values above 2, after 48 hours at 37° C) was “the reaction did not occur”. The “acid hydration reaction involving TFA, pH below 2” value in series [1] (pH values below 2, within 24 hours at 37° C) is given as “guanylurea 113 was obtained in excellent yield”. Moreover, the “tendency of cyanoguanidine group to hydration and degradation” value in series [1] was “tend towards hydration and degradation”. In series [2], the “degradation in the absence of lysosomal enzymes” value was “no degradation is observed” and the “degradation versus generation of the hydrated product 113” value is reported as “inversely correlates”.

Consider `N#C/N=C(\NCCCCC1(O)CCN(C(=O)c2cccc(N)c2)CC1)Nc1cccnc1` [C22a, (E)-1-(4-(1-(3-aminobenzoyl)-4-hydroxypiperidin-4-yl)butyl)-2-cyano-3-(pyridin-3-yl)guanidine], for which the “tendency of cyanoguanidine group to hydration and degradation” value in series [1] is “tend towards hydration and degradation”.

As for `Nc1cccc(C(=O)N2CCC(O)(CCCCNC(=O)N3Cc4ccccc4C3)CC2)c1` [C42a, N-(4-(1-(3-aminobenzoyl)-4-hydroxypiperidin-4-yl)butyl)isoindoline-2-carboxamide TFA salt], the “time stable under the conditions that triggered the hydration of 36” value in series [1] (identical conditions as those that triggered the hydration of 36) is on record as “more than 2 weeks”. For the same compound, the “hydration at pH values below 2” value in series [1] (pH values below 2 at 37° C for more than 2 weeks) is given as “no hydration”.

`O=C(/C=C/c1cccnc1)NCCCCC1CCN(C(=O)c2ccccc2)CC1` [Daporinad, (E)-N-[4-(1-benzoylpiperidin-4-yl)butyl]-3-(pyrldine-3-yl)-acrylamide]: the in vivo efficacy entry in series [3] is “In vivo efficacy of daporinad was shown”.

`N#CNC(=Nc1ccncc1)NCCCCCCOc1ccc(Cl)cc1` [CHS-828, N-[6-(4-chlorophenoxy)hexyl]-N′-cyano-N″-4-pyridinyl-guanidine]: in series [4], the “cytotoxic effects in vitro and in vivo” value is recorded as “highly cytotoxic effects”. Besides, in the series with solid tumors, the “observed responses in the clinical trials” value was “stable disease”.

With `NC(=O)/N=C(\NCCCCC1CCN(C(=O)c2cccc(N)c2)CC1)Nc1cccnc1` [compound 113, (E)-1-(((4-(1-(3-aminobenzoyl)piperidin-4-yl)butyl)amino)(pyridin-3-ylamino)methylene)urea], in the series with L540 CD30+ cell line, the “toxicity in L540 cells compared to inhibitor 36” value is recorded as “significantly reduced toxicity”.
